Results as given in patent publication US5432165A, “Methods for the treatment of infection caused by Hepatitis B virus (HBV)” (priority 1992, dated 1995).
Entries after “also recorded” stand apart in the source; their conditions may differ.

What was measured:
[1] = clinical
Method: Tolerance to the oral formulation of FIAU was evaluated in relatively healthy HIV-infected patients with Karnofsky performance scores ≥80 and ≥200 CD4 cells/mm^3. Sequential cohorts of ten patients were evaluated in an open and uncontrolled study design. […] Tolerance was determined with concurrent anti-emetic therapy (prochlorperazine or metoclopramide hydrochloride) as necessary for each patient.
This study is an open label, uncontrolled trial. […] Tolerated doses could be studied in an additional five patient cohort of chronic hepatitis B patients, who were potentially more at risk of side effects. A month of post-treatment follow-up was provided for the hepatitis cohorts due to the known propensity of this disease to "flare" after therapy.
Although not formally randomized, qualified patients were to be consecutively enrolled without regard to their disease severity, expected tolerance, or potential benefit of the dose being evaluated. Tolerance to a dose was defined as seven or more of the ten patients in a cohort individually meeting predefined tolerance criteria including successful completion of therapy and limits on changes in particular signs, symptoms and laboratory tests. Tolerance was determined with concurrent anti-emetic therapy for those patients requiring it. Criteria and regimens for such therapy were predefined.
Weight loss was restricted to less than 10% in the past three months and serum CPK was required to be within the normal range.
Patients were evaluated clinically at the screening visit, and on Days 1, 3, 7, 10, and 14. The hepatitis patients were additionally evaluated on Days 21 and 42. The blood chemistry and urinalysis tests were repeated additionally on Days 2 and 5.
Clinical evaluations consisted of a physical exam, which included a test of lower extremity muscle strength, medical history, systems review, grading of non-laboratory signs and symptoms of toxicity, and listing of concomitant medications. Additionally, at visits with clinical evaluations after Day 1, any adverse experiences were recorded.
At the screening visit a chest x-ray, electrocardiogram (ECG), HIV test, T cell profile (CD4 and CD8 counts), serum biochemistry, hematology, urinalysis and stool guaiac tests were obtained in addition to the clinical evaluation. Hematology tests consisted of hemoglobin, hematocrit, RBC, WBC and differential, platelet, reticulocyte count, MCV, MCHC and MCH. Urinalysis tests consisted of color, appearance, pH, specific gravity, bilirubin, protein, glucose, myoglobin, RBCs, WBCs, casts, crystals and bacteria. Serum biochemistry tests consisted of creatinine, uric acid, BUN, total bilirubin, AST, ALT, alkaline phosphatase, LDH, CPK, CPK-MB, glucose, total protein, albumin, globulin, calcium, phosphorus, potassium, sodium, chloride, bicarbonate and aldolase.
The Baseline visit (Day 1) consisted of repeating the clinical evaluation, hematology, serum biochemistry, urinalysis, and stool guaiac tests, and T cell profile. Additionally at Baseline, archive plasma samples were taken. Plasma samples were taken two hours after each patient's first dose of FIAU (peak) and right before the second dose (trough). Thereafter, on Days 3, 7 and 14 additional peak and trough samples were obtained by taking the trough sample just before a patient took a dose of FIAU and the peak sample two hours later. These samples were analyzed by HPLC for levels of FIAU and FAU as low as 0.05 μg/ml for either compound.
The Day 3 safety profile consisted of the clinical evaluation, hematology, serum biochemistry, urinalysis, stool guaiac tests and plasma samples for peak and trough levels of FIAU and its major metabolite FAU. On Day 7 patients underwent clinical evaluation, an ECG, peak and trough serum samples, T cell profile, and hematology, serum biochemistry, urinalysis, and stool guaiac tests. A clinical evaluation, hematology, serum biochemistry, and urinalysis tests were done on Day 10.

[2] = Oral FIAU in immune-competent patients with chronic hepatitis B: adverse experiences; format: in vivo, human
Method: Consecutively qualifying patients will be used for each dose group and patients will not be assigned to dose based on either disease severity or expected tolerance. Tolerance will be determined with antiemetic therapy given concomitantly as necessary should a patient experience sustained nausea or two or more episodes of vomiting. Compazine, 10 mg p.o. Q6H or 25 mg p.r. Q12H will be used.
The side effects that will be monitored will include gastrointestinal irritation, bone marrow suppression, neurologic, and muscular toxicity.

[3] = system: HSV-1; details: read-out: in vitro ED90; cited from earlier work
[4] = month long TID dosing of FIAC; cited from earlier work
[5] = 1.0 mg/kg-day, non-hepatitis patients, p>0.07
[6] = 1.0 mg/kg-day, ten non-hepatitis patients

For `O=c1[nH]c(=O)n([C@@H]2O[C@H](CO)[C@@H](O)[C@@H]2F)cc1I` [FIAU, 1-(2'-deoxy-2'-fluoro-β-D-arabinofuranosyl)-5-iodouracil], the “tolerance of oral FIAU” value ([1]; 1.0 mg/kg-day TID 14 days, HIV-infected patients (ten without chronic hepatitis B)) was “adequately tolerated”, the “average AST value at end of therapy” value ([1]; 1.0 mg/kg-day, non-hepatitis patients, baseline 23.4, p≤0.02) was 29.6 and the “average ALT value at end of therapy” value ([1]; 1.0 mg/kg-day, non-hepatitis patients, baseline 27.1, p≤0.02) was 42.3. For the same molecule, the “average WBC count at end of therapy” value ([1]; 1.0 mg/kg-day, non-hepatitis patients, baseline average 5,480, p=0.0746) was 4,920 cells/mm^3, the “average loss of CD4 cells” value ([1]; 1.0 mg/kg-day, non-hepatitis patients, non-significant) was 64 cells/mm^3 and the decrease in lymphocytes [1, 5] was “about 300 cells/mm^3”. The decrease in neutrophils [1, 5] was “about 300 cells/mm^3”, the “patients requiring anti-emetic therapy” value [1, 6] was “four required anti-emetic therapy” and the “patients with mild to moderate headache” value [1, 6] was “Five patients complained of mild to moderate headache”. The “patients with mild to moderate nausea” value [1, 6] was “Eight patients experienced mild to moderate nausea”, the “tolerance of oral FIAU” value ([1]; 1.7 mg/kg-day, three non-hepatitis patients) was “not tolerated; also recorded: All three discontinued the study after two to eight days due to severe fatigue” and the MTD at 336 h ([1]; human, in vivo, po, maximum tolerated dose of oral FIAU, HIV-infected population, TID for two weeks) was no less than 1 mg/kg/day. The “days on which mild fatigue was experienced” value ([2]; 0.05 mpk, patient 1C) was “Day 8”, the “days on which mild fatigue was experienced” value ([2]; 0.1 mpk, individual patients (footnotes a-d: 1A, 2A, 3A, 6A)) was “Days 3, 8, 14, 21, 28, and Week 5; also recorded: Days 7, 14, and 18” and the “days on which mild nausea was experienced” value ([2]; 0.1 mpk, patient 6A) was “Days 3, 7, 14, and 21”. The “days on which mild fatigue was experienced” value ([2]; 0.25 mpk, individual patients (footnotes e, g: 4B, 6B)) was “Days 14, 21, 28, Week 5, and Month 2”, the “days on which mild nausea was experienced” value ([2]; 0.25 mpk, patient 5B) was “Day 3” and the EC90 [3] was roughly 0.05 µM. For the same molecule, the “accumulation in the plasma” value [4] was “neither FIAC, FIAU, or their metabolites accumulated in the plasma”.
